# Assay results: patent US20260317324A1, “BIFUNCTIONAL COMPOUNDS FOR DEGRADING BRAF VIA UBIQUITIN PROTEOSOME PATHWAY” (Nurix Therapeutics, Inc., priority 2023, published 2026)
# Columns and labels:
# Type in all cases: cell-based
# BRAF G469A = biological target: T1, BRAF G469A (Homo sapiens, UniProt P15056, G469A); assay: BRAF HiBiT degradation assay, C-terminal HiBiT-tagged BRAF G469A overexpressed in HCT-116 BRAF−/− cells (clone 34), Nano-Glo HiBiT Lytic assay
# T1 construct: Horizon Discovery (HCT-116 BRAF−/− cells); host or cells: HCT-116 BRAF−/− cells, clone 34, lentiviral transduction
# T1 sequence (P15056 whole entry G469A): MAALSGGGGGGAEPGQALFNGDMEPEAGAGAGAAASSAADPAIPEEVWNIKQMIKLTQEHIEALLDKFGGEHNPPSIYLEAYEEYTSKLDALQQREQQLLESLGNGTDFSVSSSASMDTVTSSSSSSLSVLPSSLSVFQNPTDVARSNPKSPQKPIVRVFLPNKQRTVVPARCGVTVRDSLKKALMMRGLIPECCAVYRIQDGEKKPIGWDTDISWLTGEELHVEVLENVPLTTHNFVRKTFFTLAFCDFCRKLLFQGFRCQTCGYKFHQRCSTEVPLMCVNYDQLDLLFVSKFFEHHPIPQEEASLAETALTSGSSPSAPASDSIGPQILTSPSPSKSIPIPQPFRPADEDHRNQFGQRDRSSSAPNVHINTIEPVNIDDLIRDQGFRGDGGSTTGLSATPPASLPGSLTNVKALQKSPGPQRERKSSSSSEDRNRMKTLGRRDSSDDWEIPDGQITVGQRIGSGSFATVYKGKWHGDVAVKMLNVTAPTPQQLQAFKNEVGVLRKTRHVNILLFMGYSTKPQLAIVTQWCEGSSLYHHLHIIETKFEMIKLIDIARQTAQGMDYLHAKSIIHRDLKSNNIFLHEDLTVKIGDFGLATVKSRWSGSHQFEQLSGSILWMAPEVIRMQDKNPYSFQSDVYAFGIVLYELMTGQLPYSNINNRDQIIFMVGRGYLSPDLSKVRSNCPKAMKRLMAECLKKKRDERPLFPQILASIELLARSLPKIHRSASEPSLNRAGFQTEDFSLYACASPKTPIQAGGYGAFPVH
# In short: (§1)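 Luminescence from the lytic HiBiT reagent, read after 10 min at room temperature, measured tagged BRAF remaining in lentivirally transduced HCT-116 BRAF−/− cells. Compounds were tested from 1 μM to 0.01 nM in half-log steps at 0.2% DMSO. DC50 values were fitted at 50% remaining.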
# BRAF D594G = biological target: T2, BRAF D594G (Homo sapiens, UniProt P15056, D594G); assay: BRAF HiBiT degradation assay, C-terminal HiBiT-tagged BRAF D594G overexpressed in HCT-116 BRAF−/− cells (clone 63), Nano-Glo HiBiT Lytic assay
# T2 construct: Horizon Discovery (HCT-116 BRAF−/− cells); host or cells: HCT-116 BRAF−/− cells, clone 63, lentiviral transduction
# T2 sequence (P15056 whole entry D594G): as the sequence (P15056 whole entry G469A) above, with A469G, D594G counted along it
# In short: as §1
# BRAF V600E = biological target: T3, BRAF V600E (Homo sapiens, UniProt P15056, V600E); assay: BRAF HiBiT degradation assay, C-terminal HiBiT-tagged BRAF V600E A375 cells (clone 1F10), Nano-Glo HiBiT Lytic assay; settings: for Dmax: A-375
# T3 construct: endogenous C-terminal HiBiT fusion tag on BRAF V600E allele; endogenous in cells; host or cells: A375 clone 1F10 (CRISPR-Cas9 knock-in of the HiBiT tag; parental A375 from ATCC)
# T3 sequence (P15056 whole entry V600E, the tested form may be a part): as the sequence (P15056 whole entry G469A) above, with A469G, V600E counted along it
# In short: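 Endogenous BRAF V600E-HiBiT A375 (1F10), 10,000 cells/well, 24 h preculture; cpd 11-pt, 1 μM–0.01 nM half-log, n=2, 0.2% DMSO; HiBiT lytic detection 10 min RT; DC50 = fitted conc at Y=50; Obs. Dmax vs DMSO.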
# BRAF G466V = biological target: T4, BRAF G466V (Homo sapiens, UniProt P15056, G466V); assay: BRAF HiBiT degradation assay, C-terminal HiBiT-tagged BRAF G466V overexpressed in HCT-116 BRAF−/− cells (clone 8), Nano-Glo HiBiT Lytic assay
# T4 construct: Horizon Discovery (HCT-116 BRAF−/− cells); host or cells: HCT-116 BRAF−/− cells, clone 8, lentiviral transduction
# T4 sequence (P15056 whole entry G466V): as the sequence (P15056 whole entry G469A) above, with G466V, A469G counted along it
# In short: as §1
# [1] = Class 2, BRAF G469A, DC50 at 50%: fitted conc. at Y=50
# [2] = HCT-116, Class 2, BRAF G469A, percentage protein degraded at maximal compound effect relative to DMSO
# [3] = BRAF D594G, DC50 at 50%: fitted conc. at Y=50
# [4] = HCT-116, BRAF D594G, percentage protein degraded at maximal compound effect relative to DMSO
# [5] = A375 (BRAF V600E), DC50 at 50%: fitted conc. at Y=50
# [6] = A375 (BRAF V600E), percentage protein degraded at maximal compound effect relative to DMSO
# [7] = BRAF G466V, DC50 at 50%: fitted conc. at Y=50
# [8] = HCT-116, BRAF G466V, percentage protein degraded at maximal compound effect relative to DMSO
# [9] = BRAF G469A (Class 2), HCT-116 BRAF−/− cells, DC50 at 50% degradation
# [10] = BRAF G469A (Class 2), HCT-116 BRAF−/− cells, observed Dmax relative to DMSO control
# [11] = BRAF D594G (Class 3), HCT-116 BRAF−/− cells, DC50 at 50% degradation
# [12] = BRAF D594G (Class 3), HCT-116 BRAF−/− cells, observed Dmax relative to DMSO control
# [13] = A375 (BRAF V600E, Class 1), DC50 at 50% degradation
# [14] = A375 (BRAF V600E, Class 1), observed Dmax, % protein degraded relative to DMSO control
# [15] = BRAF G466V (Class 3), HCT-116 BRAF−/− cells, DC50 at 50% degradation
# [16] = BRAF G466V (Class 3), HCT-116 BRAF−/− cells, observed Dmax relative to DMSO control
SMILES,DC50 (BRAF G469A; [1]) [µM],Dmax (BRAF G469A; [2]) [%],DC50 (BRAF D594G; [3]) [µM],Dmax (BRAF D594G; [4]) [%],DC50 (BRAF V600E; [5]) [µM],Dmax (BRAF V600E; [6]) [%],DC50 (BRAF G466V; [7]) [µM],Dmax (BRAF G466V; [8]) [%],DC50 (BRAF G469A; [9]) [µM],Dmax (BRAF G469A; [10]) [%],DC50 (BRAF D594G; [11]) [µM],Dmax (BRAF D594G; [12]) [%],DC50 (BRAF V600E; [13]) [µM],Dmax (BRAF V600E; [14]) [%],DC50 (BRAF G466V; [15]) [µM],Dmax (BRAF G466V; [16]) [%]
"CCCS(=O)(=O)Nc1cccc(-c2nc(C3(C)CCN(C(=O)CN4CCC5(CC4)CN(c4ccc6c(c4)C(=O)N(C4CCC(=O)NC4=O)C6=O)C5)CC3)sc2-c2ccnc(N)n2)c1F (racemic) [Compound 238, Rac-N-{3-[5-(2-aminopyrimidin-4-yl)-2-{1-[2-(2-{2-[(3R)-2,6-dioxopiperidin-3-yl]-1,3-dioxo-2,3-dihydro-1H-isoindol-5-yl}-2,7-diazaspiro[3.5]nonan-7-yl)acetyl]-4-methylpiperidin-4-yl}-1,3-thiazol-4-yl]-2-fluorophenyl}propane-1-sulfonamide]",> 0.5,30 to 70,< 0.01,30 to 70,< 0.01,> 70,0.01 to 0.05,30 to 70,–,–,–,–,–,–,–,–
"CCCS(=O)(=O)Nc1cccc(-c2nc(C(C)(C)C3CCN(C(=O)C4CN(C5CCN(c6ccc7c(c6)C(=O)N(C6CCC(=O)NC6=O)C7=O)CC5)C4)CC3)sc2-c2ccnc(N)n2)c1F (racemic) [Compound 243, Rac-N-{3-[5-(2-aminopyrimidin-4-yl)-2-(2-{1-[1-(1-{2-[(3R)-2,6-dioxopiperidin-3-yl]-1,3-dioxo-2,3-dihydro-1H-isoindol-5-yl}piperidin-4-yl)azetidine-3-carbonyl]piperidin-4-yl}propan-2-yl)-1,3-thiazol-4-yl]-2-fluorophenyl}propane-1-sulfonamide]",> 0.5,< 30,> 0.5,30 to 70,0.05 to 0.5,30 to 70,> 0.5,< 30,–,–,–,–,–,–,–,–
"CCCS(=O)(=O)Nc1cccc(-c2nc(C3CCC4(CC3)CN(C(=O)C3CCN(c5ccc6c(c5)C(=O)N(C5CCC(=O)NC5=O)C6=O)CC3)C4)sc2-c2ccnc(N)n2)c1F (racemic) [Compound 244, Rac-N-{3-[5-(2-aminopyrimidin-4-yl)-2-[2-(1-{2-[(3R)-2,6-dioxopiperidin-3-yl]-1,3-dioxo-2,3-dihydro-1H-isoindol-5-yl}piperidine-4-carbonyl)-2-azaspiro[3.5]nonan-7-yl]-1,3-thiazol-4-yl]-2-fluorophenyl}propane-1-sulfonamide]",> 0.5,< 30,< 0.01,30 to 70,< 0.01,> 70,0.01 to 0.05,30 to 70,–,–,–,–,–,–,–,–
"CCCS(=O)(=O)Nc1cccc(-c2nc(C3CCC4(CC3)CCN(C(=O)C3CCN(c5ccc6c(c5)C(=O)N(C5CCC(=O)NC5=O)C6=O)CC3)CC4)sc2-c2ccnc(N)n2)c1F (racemic) [Compound 245, Rac-N-{3-[5-(2-aminopyrimidin-4-yl)-2-[3-(1-{2-[(3R)-2,6-dioxopiperidin-3-yl]-1,3-dioxo-2,3-dihydro-1H-isoindol-5-yl}piperidine-4-carbonyl)-3-azaspiro[5.5]undecan-9-yl]-1,3-thiazol-4-yl]-2-fluorophenyl}propane-1-sulfonamide]",> 0.5,30 to 70,< 0.01,30 to 70,< 0.01,> 70,> 0.5,30 to 70,–,–,–,–,–,–,–,–
"CCCS(=O)(=O)Nc1cccc(-c2nc(C3CCC4(CC3)CCN(C(=O)C3CCN(c5ccc(C6CCC(=O)NC6=O)cn5)CC3)CC4)sc2-c2ccnc(N)n2)c1F (racemic) [Compound 246, Rac-N-{3-[5-(2-aminopyrimidin-4-yl)-2-[3-(1-{5-[(3R)-2,6-dioxopiperidin-3-yl]pyridin-2-yl}piperidine-4-carbonyl)-3-azaspiro[5.5]undecan-9-yl]-1,3-thiazol-4-yl]-2-fluorophenyl}propane-1-sulfonamide]",–,–,–,–,–,–,–,–,> 0.5,< 30,> 0.5,30 to 70,0.01 to 0.05,> 70,> 0.5,< 30
"CCCS(=O)(=O)Nc1cccc(-c2nc(C3CCC4(CC3)CN(C(=O)CC3CCN(C5CCN(c6ccc7c(c6)C(=O)N(C6CCC(=O)NC6=O)C7=O)CC5)CC3)C4)sc2-c2ccnc(N)n2)c1F (racemic) [Compound 247, Rac-N-{3-[5-(2-aminopyrimidin-4-yl)-2-{2-[2-(1′-{2-[(3R)-2,6-dioxopiperidin-3-yl]-1,3-dioxo-2,3-dihydro-1H-isoindol-5-yl}-[1,4′-bipiperidin]-4-yl)acetyl]-2-azaspiro[3.5]nonan-7-yl}-1,3-thiazol-4-yl]-2-fluorophenyl}propane-1-sulfonamide]",–,–,–,–,–,–,–,–,> 0.5,< 30,> 0.5,30 to 70,0.01 to 0.05,> 70,> 0.5,30 to 70
"CCCS(=O)(=O)Nc1cccc(-c2nc(C3CCN(C(=O)CC4CCN(C5CCN(c6ccc7c(c6)C(=O)N(C6CCC(=O)NC6=O)C7=O)CC5)CC4)CC3)sc2-c2ccnc(N)n2)c1F (racemic) [Compound 250, Rac-N-{3-[5-(2-aminopyrimidin-4-yl)-2-{1-[2-(1′-{2-[(3R)-2,6-dioxopiperidin-3-yl]-1,3-dioxo-2,3-dihydro-1H-isoindol-5-yl}-[1,4′-bipiperidin]-4-yl)acetyl]piperidin-4-yl}-1,3-thiazol-4-yl]-2-fluorophenyl}propane-1-sulfonamide]",–,–,–,–,–,–,–,–,> 0.5,< 30,> 0.5,30 to 70,0.05 to 0.5,> 70,> 0.5,30 to 70
"CCCS(=O)(=O)Nc1cccc(-c2nc(C3CCC4(CC3)CCN(C(=O)C3CCN(c5cccc6c5n(C)c(=O)n6C5CCC(=O)NC5=O)CC3)CC4)sc2-c2ccnc(N)n2)c1F (racemic) [Compound 251, Rac-N-{3-[5-(2-aminopyrimidin-4-yl)-2-[3-(1-{1-[(3R)-2,6-dioxopiperidin-3-yl]-3-methyl-2-oxo-2,3-dihydro-1H-1,3-benzodiazol-4-yl}piperidine-4-carbonyl)-3-azaspiro[5.5]undecan-9-yl]-1,3-thiazol-4-yl]-2-fluorophenyl}propane-1-sulfonamide]",–,–,–,–,–,–,–,–,> 0.5,30 to 70,< 0.01,30 to 70,< 0.01,> 70,< 0.01,30 to 70
"CCCS(=O)(=O)Nc1cccc(-c2nc(C3CCC4(CC3)CCN(C(=O)C3CCN(c5ccc(C(=O)NC6CCC(=O)NC6=O)nc5)CC3)CC4)sc2-c2ccnc(N)n2)c1F (racemic) [Compound 252, Rac-5-(4-{9-[5-(2-aminopyrimidin-4-yl)-4-[2-fluoro-3-(propane-1-sulfonamido)phenyl]-1,3-thiazol-2-yl]-3-azaspiro[5.5]undecane-3-carbonyl}piperidin-1-yl)-N-[(3R)-2,6-dioxopiperidin-3-yl]pyridine-2-carboxamide]",–,–,–,–,–,–,–,–,> 0.5,< 30,> 0.5,< 30,0.01 to 0.05,> 70,> 0.5,< 30
"CCCS(=O)(=O)Nc1cccc(-c2nc(C3CCN(C(=O)C4CCN(C(=O)C5CCN(c6ccc(C7CCC(=O)NC7=O)cn6)CC5)CC4)CC3)sc2-c2ccnc(N)n2)c1F (racemic) [Compound 254, Rac-N-{3-[5-(2-aminopyrimidin-4-yl)-2-{1-[1-(1-{5-[(3R)-2,6-dioxopiperidin-3-yl]pyridin-2-yl}piperidine-4-carbonyl)piperidine-4-carbonyl]piperidin-4-yl}-1,3-thiazol-4-yl]-2-fluorophenyl}propane-1-sulfonamide]",–,–,–,–,–,–,–,–,0.01 to 0.05,30 to 70,< 0.01,30 to 70,< 0.01,> 70,< 0.01,> 70
